Test results as given in patent publication US20110070575A1, “Immunomodulatory Compositions, Combinations and Methods” (Coley Pharmaceutical Group, Inc., priority 2004, published 2011).
“Also recorded” adds a separate entry of the source. Oligonucleotides are written 5' to 3', each unit as a sugar letter and its base; * is a phosphorothioate linkage, no mark a phosphodiester; rarer units and linkages stand in square brackets, end groups in braces. Plain capitals give the bases only. d = 2'-deoxy (DNA)

Biological target: T1, Human TLR7 (Homo sapiens, UniProt Q9NYK1)
T1 construct: expressed in transfected cells; host or cells: HEK293 (ATCC No. CRL-1573)
T1 sequence (Q9NYK1 27-1049): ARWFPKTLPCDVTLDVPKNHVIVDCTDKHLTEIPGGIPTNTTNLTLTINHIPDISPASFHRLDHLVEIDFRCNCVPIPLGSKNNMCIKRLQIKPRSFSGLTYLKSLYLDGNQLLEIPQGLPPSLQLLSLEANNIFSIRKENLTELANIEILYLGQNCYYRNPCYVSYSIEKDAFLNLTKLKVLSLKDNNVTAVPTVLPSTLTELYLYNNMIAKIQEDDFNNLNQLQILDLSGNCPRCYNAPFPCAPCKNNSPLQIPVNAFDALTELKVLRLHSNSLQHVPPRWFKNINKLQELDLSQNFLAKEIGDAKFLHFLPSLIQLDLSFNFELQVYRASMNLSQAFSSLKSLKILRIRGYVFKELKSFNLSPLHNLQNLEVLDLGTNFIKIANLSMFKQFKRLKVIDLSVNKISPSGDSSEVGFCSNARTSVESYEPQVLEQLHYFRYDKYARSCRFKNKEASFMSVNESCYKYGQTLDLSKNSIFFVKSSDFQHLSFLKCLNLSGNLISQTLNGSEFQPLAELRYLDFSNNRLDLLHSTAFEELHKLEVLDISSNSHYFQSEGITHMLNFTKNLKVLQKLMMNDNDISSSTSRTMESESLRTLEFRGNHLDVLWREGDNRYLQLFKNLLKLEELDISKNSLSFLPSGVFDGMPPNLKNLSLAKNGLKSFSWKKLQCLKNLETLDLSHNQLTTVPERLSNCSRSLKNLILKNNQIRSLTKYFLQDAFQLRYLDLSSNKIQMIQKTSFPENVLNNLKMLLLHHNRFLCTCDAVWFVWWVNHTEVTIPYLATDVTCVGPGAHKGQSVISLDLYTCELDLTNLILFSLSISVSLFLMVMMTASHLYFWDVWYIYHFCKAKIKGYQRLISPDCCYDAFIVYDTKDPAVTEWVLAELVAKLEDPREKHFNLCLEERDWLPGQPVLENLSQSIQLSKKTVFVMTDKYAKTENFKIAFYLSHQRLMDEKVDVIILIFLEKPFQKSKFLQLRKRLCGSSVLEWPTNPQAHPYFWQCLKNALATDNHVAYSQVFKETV
Assay: NFκB luciferase induction in HEK293 cells transfected with human TLR7
Format: cell-based
Settings: transfected HEK293 cell line; poly(T), poly(A) or poly(C) oligonucleotide with 3 μM IRM1; overnight
Procedure: Human TLR7 and NFκβ were transfected into human epithelial kidney 293 (HEK293, American Type Culture Collection, Manassas, Va., ATCC No. CRL-1573) cells as described in U.S. Patent Publication Nos. U82004/0014779 and US2004/0171086. The selected transfected cells were counted and resuspended to a concentration of 5×10^5 cell per mL in culture media.
Cultured media was prepared from complete DMEM media (Biosource International Inc., Camarillo, Calif.), without phenol red. Fetal bovine serum (Biosource International Inc.) was added to a final concentration of 10% (vol/vol.), sodium pyruvate (Biosource International Inc.) was added to 1 mM; L-glutamine (Biosource International Inc.) was added to 2 mM; penicillin (Biosource International Inc.) was added to 100 U/mL; streptomycin (Biosource International Inc.) was added to 100 μg/mL.
100 μL aliquots of cells were placed in the wells of a white-walled, white-bottomed 96-well plate (Corning, Inc. Corning, N.Y.). […] As a negative control, some cell aliquots were incubated without a stimulus (media control). In all cases, the cells were incubated overnight at 37° C. with 5% CO2 and 98% humidity.
After the cells incubated overnight, 100 μL volume of reconstituted LucLight Plus (Packard Instruments, Meriden, Conn.) was added to each aliquot of cells. Each well of the plate was read on a L-max luminometer (Molecular Devices, Sunnyvale, Calif.). The data is expressed as fold increase of luciferase induction in cell aliquots incubated with the indicated stimulant compared to the negative control.
HEK293 cells expressing human TLR7 were prepared as described in Example 1. […] As a negative control, some cell aliquots were incubated without a stimulus (media control).
After the cells incubated overnight, the cells were analyzed as described in Example 1. The data is expressed as fold increase of luciferase induction in cell aliquots incubated with the indicated stimulant compared to the negative control.

## poly(A): 18-mer poly(A) oligonucleotide, 5′-AAAAAAAAAAAAAAAAAA-3′ (dA*dA*dA*dA*dA*dA*dA*dA*dA*dA*dA*dA*dA*dA*dA*dA*dA*dA)
  inhibition of smIRM-induced TLR7-mediated biological activity (fold increase of luciferase induction): inhibition; also recorded: capable of limiting TLR7-mediated biological activity

## poly(T): 18-mer poly(T) oligonucleotide, 5′-TTTTTTTTTTTTTTTTTT-3′
  inhibition of smIRM-induced TLR7-mediated biological activity (fold increase of luciferase induction): inhibition; also recorded: capable of limiting TLR7-mediated biological activity
